Literature values in patent US20230041069A1, “ELECTROLYTE FOR ELECTROCHEMICAL GAS SENSOR AND ELECTROCHEMICAL GAS SENSOR INCLUDING THE SAME” (Samsung Electronics Co., Ltd., priority 2021, published 2023).

For CCn1cc[n+](C)c1.N#C[N-]C#N [compound 6, 1-Ethyl-3-methylimidazolium dicyanamide], the “pKa of an anion's conjugate acid” value is given as 5.
